Source: ChEMBL document CHEMBL1944551, “An integrated computational workflow for efficient and quantitative modeling of renin inhibitors” (Bioorg Med Chem, 2012)

Experiment: physchem
Details: octanol/buffer
Work on CCNCc1ccc(Cl)c(CN(C(=O)[C@H]2CNCC(=O)N2c2cnc(OCCCOCc3ccccc3OC)nc2)C2CC2)c1 yielded a logP of 3.21.
Work on CCNCc1ccc(Cl)c(CN(C(=O)[C@H]2CNCC(=O)N2c2ccc(CCCOc3cccc(Cl)c3)cc2)C2CC2)c1 yielded a logP of 6.06.
CCNCc1ccc(Cl)c(CN(C(=O)[C@H]2CNCC(=O)N2c2ccc(CCCOc3c(F)ccc(F)c3F)cc2)C2CC2)c1 gave a logP of 5.89.
Molecule CCNCCc1ccc(Cl)c(CN(C(=O)[C@H]2CNCC(=O)N2c2ccc(OCCOc3c(Cl)cc(C)cc3Cl)cc2)C2CC2)c1 has a logP of 6.08.
In the case of CCNCCc1ccc(Cl)c(CN(C(=O)[C@H]2CNCC(=O)N2c2ccc(OCCOc3c(Cl)cc(C)cc3Cl)nc2)C2CC2)c1, the logP is reported as 5.25.
In the case of CCNCCc1ccc(Cl)c(CN(C(=O)[C@H]2CNCC(=O)N2c2ccc(COC(=O)c3ccccc3)cc2)C2CC2)c1, the logP is reported as 4.98.
Molecule CCNCCc1ccc(Cl)c(CN(C(=O)[C@H]2CNCC(=O)N2c2ccc(OCCCOCc3ccccc3)cc2)C2CC2)c1 has a logP of 5.35.
Work on CCNCCc1ccc(Cl)c(CN(C(=O)[C@H]2CNCC(=O)N2c2ccc(OCCCOCc3ccccc3OC)cc2)C2CC2)c1 yielded a logP of 5.31.
Work on CCNCCc1ccc(Cl)c(CN(C(=O)[C@H]2CNCC(=O)N2c2cnc(OCCCOCc3ccccc3OC)nc2)C2CC2)c1 yielded a logP of 3.3.
For CCNCCc1ccc(Cl)c(CN(C(=O)[C@H]2CNCC(=O)N2c2ccc(CCCOc3cccc(Cl)c3)cc2)C2CC2)c1, the logP was 6.15.
Molecule CC(=O)NCCc1ccc(Cl)c(CN(C(=O)[C@H]2CNCC(=O)N2c2ccc(COC(=O)c3ccccc3)cc2)C2CC2)c1 has a logP of 4.28.
In the case of CC(=O)NCCc1ccc(Cl)c(CN(C(=O)[C@H]2CNCC(=O)N2c2ccc(OCCCOCc3ccccc3)cc2)C2CC2)c1, the logP is reported as 4.66.
With COc1ccccc1COCCCOc1ccc(N2C(=O)CNC[C@@H]2C(=O)N(Cc2cc(CCNC(C)=O)ccc2Cl)C2CC2)cc1 the logP was 4.61.
With COc1ccccc1COCCCOc1ncc(N2C(=O)CNC[C@@H]2C(=O)N(Cc2cc(CCNC(C)=O)ccc2Cl)C2CC2)cn1 the logP was 2.6.
With CC(=O)NCCc1ccc(Cl)c(CN(C(=O)[C@H]2CNCC(=O)N2c2ccc(CCCOc3cccc(Cl)c3)cc2)C2CC2)c1 the logP was 5.45.
For CC(=O)NCCc1ccc(Cl)c(CN(C(=O)[C@H]2CNCC(=O)N2c2ccc(CCCOc3c(F)ccc(F)c3F)cc2)C2CC2)c1, the logP was 5.28.
Molecule CCNCCc1ccc(Cl)c(CN(C(=O)[C@H]2CNCC(=O)N2c2ccc(CCCOc3c(F)ccc(F)c3F)cc2)C2CC2)c1 has a logP of 5.97.
Work on Cc1cc(Cl)c(OCCOc2ccc(N3C(=O)CNC[C@@H]3C(=O)N(Cc3cc(CCNCC(F)F)ccc3Cl)C3CC3)cc2)c(Cl)c1 yielded a logP of 6.15.
With Cc1cc(Cl)c(OCCOc2ccc(N3C(=O)CNC[C@@H]3C(=O)N(Cc3cc(CCNCC(F)F)ccc3Cl)C3CC3)cn2)c(Cl)c1 the logP was 5.33.
Work on O=C(OCc1ccc(N2C(=O)CNC[C@@H]2C(=O)N(Cc2cc(CCNCC(F)F)ccc2Cl)C2CC2)cc1)c1ccccc1 yielded a logP of 5.05.
With O=C([C@H]1CNCC(=O)N1c1ccc(OCCCOCc2ccccc2)cc1)N(Cc1cc(CCNCC(F)F)ccc1Cl)C1CC1 the logP was 5.43.
For COc1ccccc1COCCCOc1ccc(N2C(=O)CNC[C@@H]2C(=O)N(Cc2cc(CCNCC(F)F)ccc2Cl)C2CC2)cc1, the logP was 5.38.
With COc1ccccc1COCCCOc1ncc(N2C(=O)CNC[C@@H]2C(=O)N(Cc2cc(CCNCC(F)F)ccc2Cl)C2CC2)cn1 the logP was 3.37.
O=C([C@H]1CNCC(=O)N1c1ccc(CCCOc2cccc(Cl)c2)cc1)N(Cc1cc(CCNCC(F)F)ccc1Cl)C1CC1 showed a logP of 6.22.
O=C([C@H]1CNCC(=O)N1c1ccc(CCCOc2c(F)ccc(F)c2F)cc1)N(Cc1cc(CCNCC(F)F)ccc1Cl)C1CC1 showed a logP of 6.05.
Cc1cc(Cl)c(OCCOc2ccc(N3C(=O)CNC[C@@H]3C(=O)N(Cc3cc(CNCCF)ccc3Cl)C3CC3)cc2)c(Cl)c1 gave a logP of 5.77.
Molecule Cc1cc(Cl)c(OCCOc2ccc(N3C(=O)CNC[C@@H]3C(=O)N(Cc3cc(CNCCF)ccc3Cl)C3CC3)cn2)c(Cl)c1 has a logP of 4.94.
CNC(=O)CCc1ccc(Cl)c(CN(C(=O)[C@H]2CNCC(=O)N2c2ccc(OCCOc3c(Cl)cc(C)cc3Cl)cc2)C2CC2)c1 showed a logP of 5.34.
CNC(=O)CCc1ccc(Cl)c(CN(C(=O)[C@H]2CNCC(=O)N2c2ccc(OCCOc3c(Cl)cc(C)cc3Cl)nc2)C2CC2)c1 showed a logP of 4.52.
CNC(=O)CCc1ccc(Cl)c(CN(C(=O)[C@H]2CNCC(=O)N2c2ccc(COC(=O)c3ccccc3)cc2)C2CC2)c1 gave a logP of 4.24.
CNC(=O)CCc1ccc(Cl)c(CN(C(=O)[C@H]2CNCC(=O)N2c2ccc(OCCCOCc3ccccc3)cc2)C2CC2)c1 showed a logP of 4.62.
In the case of CNC(=O)CCc1ccc(Cl)c(CN(C(=O)[C@H]2CNCC(=O)N2c2ccc(OCCCOCc3ccccc3OC)cc2)C2CC2)c1, the logP is reported as 4.57.
CNC(=O)CCc1ccc(Cl)c(CN(C(=O)[C@H]2CNCC(=O)N2c2cnc(OCCCOCc3ccccc3OC)nc2)C2CC2)c1 showed a logP of 2.56.
For CNC(=O)CCc1ccc(Cl)c(CN(C(=O)[C@H]2CNCC(=O)N2c2ccc(CCCOc3cccc(Cl)c3)cc2)C2CC2)c1, the logP was 5.42.
With CNC(=O)CCc1ccc(Cl)c(CN(C(=O)[C@H]2CNCC(=O)N2c2ccc(CCCOc3c(F)ccc(F)c3F)cc2)C2CC2)c1 the logP was 5.24.
In the case of O=C(OCc1ccc(N2C(=O)CNC[C@@H]2C(=O)N(Cc2cc(CNCCF)ccc2Cl)C2CC2)cc1)c1ccccc1, the logP is reported as 4.66.
For O=C([C@H]1CNCC(=O)N1c1ccc(OCCCOCc2ccccc2)cc1)N(Cc1cc(CNCCF)ccc1Cl)C1CC1, the logP was 5.04.
COc1ccccc1COCCCOc1ccc(N2C(=O)CNC[C@@H]2C(=O)N(Cc2cc(CNCCF)ccc2Cl)C2CC2)cc1 showed a logP of 4.99.
For COc1ccccc1COCCCOc1ncc(N2C(=O)CNC[C@@H]2C(=O)N(Cc2cc(CNCCF)ccc2Cl)C2CC2)cn1, the logP was 2.98.
In the case of O=C([C@H]1CNCC(=O)N1c1ccc(CCCOc2cccc(Cl)c2)cc1)N(Cc1cc(CNCCF)ccc1Cl)C1CC1, the logP is reported as 5.84.
With O=C([C@H]1CNCC(=O)N1c1ccc(CCCOc2c(F)ccc(F)c2F)cc1)N(Cc1cc(CNCCF)ccc1Cl)C1CC1 the logP was 5.66.
Work on Cc1cc(Cl)c(OCCOc2ccc(N3C(=O)CNC[C@@H]3C(=O)N(Cc3cc(CNCC(F)F)ccc3Cl)C3CC3)cc2)c(Cl)c1 yielded a logP of 6.07.
Molecule Cc1cc(Cl)c(OCCOc2ccc(N3C(=O)CNC[C@@H]3C(=O)N(Cc3cc(CNCC(F)F)ccc3Cl)C3CC3)cn2)c(Cl)c1 has a logP of 5.24.
Work on O=C(OCc1ccc(N2C(=O)CNC[C@@H]2C(=O)N(Cc2cc(CNCC(F)F)ccc2Cl)C2CC2)cc1)c1ccccc1 yielded a logP of 4.96.
Molecule O=C([C@H]1CNCC(=O)N1c1ccc(OCCCOCc2ccccc2)cc1)N(Cc1cc(CNCC(F)F)ccc1Cl)C1CC1 has a logP of 5.34.
In the case of COc1ccccc1COCCCOc1ccc(N2C(=O)CNC[C@@H]2C(=O)N(Cc2cc(CNCC(F)F)ccc2Cl)C2CC2)cc1, the logP is reported as 5.29.
In the case of COc1ccccc1COCCCOc1ncc(N2C(=O)CNC[C@@H]2C(=O)N(Cc2cc(CNCC(F)F)ccc2Cl)C2CC2)cn1, the logP is reported as 3.28.
For O=C([C@H]1CNCC(=O)N1c1ccc(CCCOc2cccc(Cl)c2)cc1)N(Cc1cc(CNCC(F)F)ccc1Cl)C1CC1, the logP was 6.14.
In the case of O=C([C@H]1CNCC(=O)N1c1ccc(CCCOc2c(F)ccc(F)c2F)cc1)N(Cc1cc(CNCC(F)F)ccc1Cl)C1CC1, the logP is reported as 5.96.
For CC(=O)NCCc1ccc(Cl)c(CN(C(=O)[C@H]2CNCC(=O)N2c2ccc(OCCOc3c(Cl)cc(C)cc3Cl)cc2)C2CC2)c1, the logP was 5.38.
Molecule CC(=O)NCCc1ccc(Cl)c(CN(C(=O)[C@H]2CNCC(=O)N2c2ccc(OCCOc3c(Cl)cc(C)cc3Cl)nc2)C2CC2)c1 has a logP of 4.55.
Work on Cc1ccccc1Cc1c(C(=O)N2CCNCC2)c2ccccc2n1-c1ccsc1 yielded a logP of 5.02.
COCCc1ccc(Cl)c(CN(C(=O)[C@H]2CNCC(=O)N2c2ccc(OCCOc3c(Cl)cc(C)cc3Cl)cc2)C2CC2)c1 gave a logP of 6.05.
In the case of COCCc1ccc(Cl)c(CN(C(=O)[C@H]2CNCC(=O)N2c2ccc(OCCOc3c(Cl)cc(C)cc3Cl)nc2)C2CC2)c1, the logP is reported as 5.22.
For COCCc1ccc(Cl)c(CN(C(=O)[C@H]2CNCC(=O)N2c2ccc(COC(=O)c3ccccc3)cc2)C2CC2)c1, the logP was 4.95.
COCCc1ccc(Cl)c(CN(C(=O)[C@H]2CNCC(=O)N2c2ccc(OCCCOCc3ccccc3)cc2)C2CC2)c1 gave a logP of 5.32.
In the case of COCCc1ccc(Cl)c(CN(C(=O)[C@H]2CNCC(=O)N2c2ccc(OCCCOCc3ccccc3OC)cc2)C2CC2)c1, the logP is reported as 5.27.
For COCCc1ccc(Cl)c(CN(C(=O)[C@@H]2CNCC(=O)N2c2cnc(OCCCOCc3ccccc3OC)nc2)C2CC2)c1, the logP was 3.26.
With COCCc1ccc(Cl)c(CN(C(=O)[C@H]2CNCC(=O)N2c2ccc(CCCOc3cccc(Cl)c3)cc2)C2CC2)c1 the logP was 6.12.
In the case of COCCc1ccc(Cl)c(CN(C(=O)[C@H]2CNCC(=O)N2c2ccc(CCCOc3c(F)ccc(F)c3F)cc2)C2CC2)c1, the logP is reported as 5.94.
CNCc1ccc(Cl)c(CN(C(=O)[C@H]2CNCC(=O)N2c2ccc(OCCOc3c(Cl)cc(C)cc3Cl)cc2)C2CC2)c1 showed a logP of 5.65.
CNCc1ccc(Cl)c(CN(C(=O)[C@H]2CNCC(=O)N2c2ccc(OCCOc3c(Cl)cc(C)cc3Cl)nc2)C2CC2)c1 gave a logP of 4.82.
CNCc1ccc(Cl)c(CN(C(=O)[C@H]2CNCC(=O)N2c2ccc(COC(=O)c3ccccc3)cc2)C2CC2)c1 gave a logP of 4.55.
With CNCc1ccc(Cl)c(CN(C(=O)[C@H]2CNCC(=O)N2c2ccc(OCCCOCc3ccccc3)cc2)C2CC2)c1 the logP was 4.92.
CNCc1ccc(Cl)c(CN(C(=O)[C@H]2CNCC(=O)N2c2ccc(OCCCOCc3ccccc3OC)cc2)C2CC2)c1 showed a logP of 4.88.
Work on CNCc1ccc(Cl)c(CN(C(=O)[C@@H]2CNCC(=O)N2c2cnc(OCCCOCc3ccccc3OC)nc2)C2CC2)c1 yielded a logP of 2.87.
CNCc1ccc(Cl)c(CN(C(=O)[C@H]2CNCC(=O)N2c2ccc(CCCOc3cccc(Cl)c3)cc2)C2CC2)c1 showed a logP of 5.72.
CNCc1ccc(Cl)c(CN(C(=O)[C@H]2CNCC(=O)N2c2ccc(CCCOc3c(F)ccc(F)c3F)cc2)C2CC2)c1 gave a logP of 5.55.
CCNCc1ccc(Cl)c(CN(C(=O)[C@H]2CNCC(=O)N2c2ccc(OCCOc3c(Cl)cc(C)cc3Cl)cc2)C2CC2)c1 showed a logP of 5.99.
With CCNCc1ccc(Cl)c(CN(C(=O)[C@H]2CNCC(=O)N2c2ccc(OCCOc3c(Cl)cc(C)cc3Cl)nc2)C2CC2)c1 the logP was 5.16.
In the case of CCNCc1ccc(Cl)c(CN(C(=O)[C@H]2CNCC(=O)N2c2ccc(COC(=O)c3ccccc3)cc2)C2CC2)c1, the logP is reported as 4.89.
In the case of CCNCc1ccc(Cl)c(CN(C(=O)[C@H]2CNCC(=O)N2c2ccc(OCCCOCc3ccccc3)cc2)C2CC2)c1, the logP is reported as 5.26.
Work on CCNCc1ccc(Cl)c(CN(C(=O)[C@H]2CNCC(=O)N2c2ccc(OCCCOCc3ccccc3OC)cc2)C2CC2)c1 yielded a logP of 5.22.
